Reference: US20220274947A1, “NOVEL HETEROARYL-TRIAZOLE COMPOUNDS AS PESTICIDES” (Bayer Aktiengesellschaft, priority 2019, published 2022)

How the values were obtained:
Assay type in all cases: in vivo
Diabrotica balteata = Diabrotica balteata spray test; conditions: 168 h, wheat seeds, larvae, after 7 days, read-out: activity (efficacy: 100% means all seedlings have grown up like in the untreated, uninfected control); for pest or weed control at 32 µg/disc, 100 g/ha: application rate 100 g/ha (=32 μg/well); for pest or weed control at 160 µg/disc, 500 g/ha: application rate 500 g/ha (=160 μg/well)
In short: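 Wheat seedlings, germinated 1 day on agar, were sprayed with compound in acetone/DMF diluted in water containing emulsifier, then infested with 10-20 Diabrotica balteata larvae. After 7 days efficacy in % was scored: 100% means seedlings grew like the untreated, uninfected control; 0% means none grew.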

Rhipicephalus microplus [1] = experiment: Rhipicephalus (Boophilus) microplus injection test (BOOPMI Inj); conditions: 168 h, injection into adult engorged female ticks, egg deposition after 7 days, read-out: activity (efficacy: 100% means all eggs are infertile); for pest or weed control at 0.004 mg: application rate 4 μg/tick; for pest or weed control at 0.02 mg: application rate 20 μg/tick
In short: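 Five engorged adult female R. microplus ticks injected into the abdomen with 1 μL of compound diluted in DMSO, then kept in a climate chamber. Fertile egg deposition checked after 7 days; eggs without visible fertility held until hatching at about 42 days. Efficacy: 100% = all eggs infertile, 0% = all fertile.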

Rhipicephalus microplus [2] = experiment: Rhipicephalus (Boophilus) microplus in-vitro contact test, larval cattle tick, strain Parkhurst (BOOPMI Cont); conditions: application rate 5 μg/cm^2 (=500 g/ha), tick larvae, after 48 hours, read-out: activity (efficacy: 100% means all larvae are dead or moribund)
In short: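 Acetone solutions dried onto glass tube walls (900 ppm giving 5 μg/cm^2); 20-50 pyrethroid-resistant Parkhurst larvae added per tube and held 48 h at 27° C., 85% relative humidity. Efficacy scored by negative geotaxis as % dead or moribund larvae.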

Ctenocephalides felis [3] = experiment: Ctenocephalides felis oral test (CTECFE Oral); conditions: 48 h, read-out: activity (mortality)
In short: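 About 20 unfed adult cat fleas fed through parafilm on cattle blood containing compound (DMSO concentrate diluted in blood to the desired concentration). Blood held at 37 °C, fleas at room temperature. Mortality (%) scored after 2 days.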

Nezara viridula = Nezara viridula spray test; conditions: in Hordeum vulgare, 96 h, barley plants, larvae, after 4 days; for mortality at 100 g/ha: application rate 100 g/ha; for mortality at 500 g/ha: application rate 500 g/ha
In short: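 Barley plants infested with N. viridula larvae were sprayed with compound in acetone/DMF diluted with water containing 1000 ppm alkylarylpolyglycol ether emulsifier. Mortality (%) was scored after 4 days; 100% means all bugs killed, 0% none.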

Spodoptera frugiperda = Spodoptera frugiperda spray test; conditions: in Zea mays, 168 h, read-out: activity (mortality)
In short: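 Maize leaf sections were sprayed with compound formulated in acetone/DMF and diluted in water containing 1000 ppm emulsifier. Dried leaves were infested with fall armyworm larvae, and percent mortality was scored after 7 days.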

[4] = tested on: Culex quinquefasciatus strain P00; experiment: Culex quinquefasciatus test (CULXFA surface treatment & contact assay); conditions: exposure 30 minutes, 24 hours after contact, read-out: efficacy (mortality); for mortality at 20 mg/m2: surface concentration 20 mg/m^2, glazed tile; for mortality at 4 mg/m2: surface concentration 4 mg/m^2, glazed tile
In short: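 Test compound in acetone (2 mg/ml) with 2000 ppm RME pipetted onto glazed tile; after acetone evaporation, adult strain P00 mosquitoes exposed to dried surface for 30 min. Mortality (%) scored 24 h after contact; 100% = all dead, 0% = none dead.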

Ctenocephalides felis [5] = experiment: Ctenocephalides felis in-vitro contact test, adult cat flea (CTECFE Cont); conditions: application rate 5 μg/cm^2 (=500 g/ha), adult cat fleas, after 48 hours, read-out: activity (efficacy: 100% means all fleas are dead or moribund)
In short: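 Acetone solutions coated on glass tube inner walls (900 ppm giving 5 μg/cm^2), then 5-10 adult fleas added and held 48 h at room temperature. Fleas unable to escape a 45-50° C. heating plate within 5 min scored dead or moribund; efficacy = % dead/moribund.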

Row | SMILES | pest or weed control at 32 µg/disc, 100 g/ha (Diabrotica balteata) [%] | pest or weed control at 160 µg/disc, 500 g/ha (Diabrotica balteata) [%] | pest or weed control at 0.004 mg (Rhipicephalus microplus [1]) [%] | pest or weed control at 0.02 mg (Rhipicephalus microplus [1]) [%] | pest or weed control at 5 µg/cm2 (Rhipicephalus microplus [2]) [%] | mortality at 100 ppm (Ctenocephalides felis [3]) [%] | mortality at 100 g/ha (Nezara viridula) [%] | mortality at 500 g/ha (Nezara viridula) [%] | mortality at 100 g/ha (Spodoptera frugiperda) [%] | mortality at 500 g/ha (Spodoptera frugiperda) [%] | mortality at 20 mg/m2 [4] [%] | pest or weed control at 5 µg/cm2 (Ctenocephalides felis [5]) [%] | mortality at 4 mg/m2 [4] [%]
1 | C[C@H](NC(=O)c1cc(Cl)nc(C(F)(F)F)c1)c1ncnn1-c1ccc(C#N)cn1 [II-5] | 100 | 100 | 100 | 100 | 100 | 90 | 90 | 100 | 100 | 100 | 80 to 100 | 100 | –
2 | C[C@H](NC(=O)c1cc(Cl)cc(OC(F)(F)F)c1)c1ncnn1-c1cc(N)ccn1 [II-7] | 100 | 100 | 100 | 100 | – | 100 | – | 90 | – | 100 | 80 to 100 | 90 | –
3 | C[C@H](NC(=O)c1ccnc(C(F)(F)F)n1)c1ncnn1-c1ccc(C#N)cn1 [II-8] | 100 | 100 | 100 | 100 | 100 | 100 | 100 | 100 | – | 100 | 80 to 100 | 90 | 80 to 100
4 | C[C@H](NC(=O)c1cc(Cl)cc(SC(F)F)c1)c1ncnn1-c1ccc(C#N)cn1 [II-11] | 100 | 100 | 100 | 100 | 100 | 100 | 100 | – | 100 | 100 | 80 to 100 | 100 | 80 to 100
5 | C[C@H](NC(=O)c1cc(Cl)cc(C(F)F)c1)c1ncnn1-c1ccc(C#N)cn1 [II-12] | 100 | 100 | 100 | 100 | 100 | 100 | 100 | 100 | 100 | 100 | 80 to 100 | 100 | 80 to 100
6 | C[C@H](NC(=O)c1cc(Br)cc(Br)c1)c1ncnn1-c1ccc(C#N)cn1 [II-13] | 100 | – | 100 | 100 | 100 | 100 | – | 90 | 100 | 100 | 80 to 100 | 100 | –
7 | C[C@H](NC(=O)c1cc(Cl)cc(OC(F)(F)F)c1)c1ncnn1-c1ncc(Cl)s1 [II-16] | 100 | 100 | 100 | 100 | 100 | 100 | 90 | 100 | 100 | – | 80 to 100 | 100 | –
8 | C[C@H](NC(=O)c1cc(Cl)cc(C(F)(F)F)c1)c1ncnn1-c1cc(N)ccn1 [II-28] | 100 | 100 | 100 | 100 | 90 | 100 | – | 90 | – | 100 | 80 to 100 | 100 | 80 to 100
9 | C[C@H](NC(=O)c1cc(Cl)cc(OC(F)(F)F)c1)c1ncnn1-c1ncc(OC(F)F)cn1 [II-30] | 100 | 100 | 100 | 100 | 100 | 100 | 100 | 100 | 100 | 100 | – | 100 | 80 to 100
10 | C[C@H](NC(=O)c1cc(Cl)cc(C#N)c1)c1ncnn1-c1ccc(C#N)cn1 [II-57] | – | – | 100 | 100 | 100 | 100 | 100 | – | 100 | – | 80 to 100 | 100 | 80 to 100
11 | Cc1nc([C@H](C)NC(=O)c2cc(Cl)nc(C(F)(F)F)c2)n(-c2ccc(C#N)cn2)n1 [II-62] | 100 | – | 100 | 100 | 100 | 100 | 100 | – | 100 | – | 80 to 100 | 100 | –
12 | Cc1nc([C@H](C)NC(=O)c2cncc(C(F)(F)F)c2)n(-c2ccc(C#N)cn2)n1 [II-63] | 100 | – | 100 | 100 | 100 | 100 | 100 | – | – | – | 80 to 100 | 100 | –
